Results taken from patent US20250018014A1, “METHOD FOR TREATING AND/OR PREVENTING REGNASE-1-RELATED DISEASE” (OSAKA UNIVERSITY, priority 2018, published 2025).
Where two headings read alike, the source gives them in different places. Residues, ends and D or L forms follow the SMILES beside them.

Assays:
[1] = biological target: T1, FL_Reg1 (full-length human Regnase-1) phosphorylation by TBK1 (Homo sapiens, UniProt Q5D1E8); experiment: Regnase-1 phosphorylation inhibition by compounds (AlphaScreen), TBK1, full-length Regnase-1; type: biochemical
T1 construct: made in house; host or cells: Expi293 cells
T1 sequence (Q5D1E8 1-599): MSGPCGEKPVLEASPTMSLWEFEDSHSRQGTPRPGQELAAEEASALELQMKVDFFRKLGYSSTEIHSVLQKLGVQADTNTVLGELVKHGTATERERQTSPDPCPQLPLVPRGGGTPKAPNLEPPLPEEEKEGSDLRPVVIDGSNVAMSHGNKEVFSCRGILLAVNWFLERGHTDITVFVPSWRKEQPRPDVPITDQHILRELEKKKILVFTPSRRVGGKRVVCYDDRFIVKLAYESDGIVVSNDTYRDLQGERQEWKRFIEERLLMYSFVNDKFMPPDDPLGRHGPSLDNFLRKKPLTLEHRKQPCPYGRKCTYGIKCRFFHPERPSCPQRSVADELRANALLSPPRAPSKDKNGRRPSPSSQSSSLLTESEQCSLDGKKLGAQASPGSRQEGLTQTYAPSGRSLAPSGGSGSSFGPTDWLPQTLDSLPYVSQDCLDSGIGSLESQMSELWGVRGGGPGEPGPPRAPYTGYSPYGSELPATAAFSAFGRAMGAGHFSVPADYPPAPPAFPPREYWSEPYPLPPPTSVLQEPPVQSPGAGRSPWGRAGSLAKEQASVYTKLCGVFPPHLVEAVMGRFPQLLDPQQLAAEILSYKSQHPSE
Source text: The full-length sequence of human Regnase-1 (UniProt ID: Q5D1E8) was used to prepare a construct having a FLAG tag on the N-terminal side and a recognition sequence for biotin ligase BirA on the C-terminal side (FL_Reg1) as a target protein. The above-mentioned Regnase-1 was expressed in mammalian Expi293 cells, purified with FLAG M2 agarose, and isolated by gel filtration chromatography. When biotinylation was required, methods from nonpatent documents (BMC biotechnology, 2008,8,41; and Protein Science, 1999,8,921-929) were used. […]
(§1) Using Kinase assay buffer III (manufactured by SignalChem) supplemented with 2 mM DTT, 100 μM sodium vanadate, and 2 mM manganese chloride, kinase (IKKβ (manufactured by SignalChem) or TBK1 (manufactured by SignalChem)) and Regnase-1 were reacted in the presence of 10 μM ATP at room temperature for 2 hours to perform a phosphorylation reaction.
(§2) Phosphorylated Regnase-1 was detected by the AlphaScreen system. After each of the above-mentioned phosphorylated Regnase-1 antibodies was added and reacted at room temperature for one hour, anti-FLAG AlphaLISA Acceptor Beads (manufactured by PerkinElmer) and Protein A AlphaScreen Donor Beads (manufactured by PerkinElmer) were added, and EnVision (manufactured by PerkinElmer) was used to measure the excited luminescence. As a result, phosphorylated Regnase-1 produced by the phosphorylation reaction by kinase was specifically detected, and signals were confirmed to be enhanced in a manner dependent on Regnase-1 and kinase concentrations (FIG. 24).
(§3) After mixing 2 nM of the above-mentioned Regnase-1 and the compound, phosphorylated Regnase-1 produced by the phosphorylation reaction was detected by the AlphaScreen system. As the results, the inhibition rate was calculated from the signals obtained when adding the compound at each concentration, by defining the signal obtained with Regnase-1 alone to be 100% inhibition rate, and the signal obtained when the same amount of solvent (DMSO) is added in place of the compound as 0% inhibition rate. The 50% inhibition concentration (μM) was calculated from the obtained dose response curve (Table 11).

[2] = biological target: T2, ΔCTD_Reg1 (amino acids 1 to 546 of human Regnase-1) phosphorylation by IKKβ (Homo sapiens, UniProt Q5D1E8); experiment: Regnase-1 phosphorylation inhibition by compounds (AlphaScreen), IKKβ, CTD-deficient Regnase-1; type: biochemical
T2 construct: made in house; host or cells: Expi293 cells
T2 sequence (Q5D1E8 1-546): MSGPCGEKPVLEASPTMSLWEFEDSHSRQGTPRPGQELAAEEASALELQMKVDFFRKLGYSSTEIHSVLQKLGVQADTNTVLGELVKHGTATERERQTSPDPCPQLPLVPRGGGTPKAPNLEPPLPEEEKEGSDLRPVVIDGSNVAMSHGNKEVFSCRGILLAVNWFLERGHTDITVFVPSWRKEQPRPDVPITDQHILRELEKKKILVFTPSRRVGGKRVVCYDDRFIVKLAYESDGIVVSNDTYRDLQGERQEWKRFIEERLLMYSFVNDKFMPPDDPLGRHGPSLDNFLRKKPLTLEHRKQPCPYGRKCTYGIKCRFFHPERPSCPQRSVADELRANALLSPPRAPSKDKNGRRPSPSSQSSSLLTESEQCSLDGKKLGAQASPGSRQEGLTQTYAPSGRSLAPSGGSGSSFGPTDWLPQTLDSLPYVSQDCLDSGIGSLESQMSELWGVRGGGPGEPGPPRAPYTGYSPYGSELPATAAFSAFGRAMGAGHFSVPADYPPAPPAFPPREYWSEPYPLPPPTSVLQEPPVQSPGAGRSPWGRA
Experimental: Among the full-length human Regnase-1 sequence, the 1st to 546th amino acid sequence was prepared and made into a construct having a FLAG tag on the N-terminal side and a biotin ligase BirA recognition sequence on the C-terminal side (herein, a Regnase-1 lacking the C-terminal domain of Regnase-1 (amino acids 547 to 599 in the case of SEQ ID NO: 2) is referred to as “ΔCTD_Reg1”. “ΔCTD_Reg1” is different from “Regnase-1ΔCTD”, which is a C-terminal domain deletion variant resulting from a frameshift mutation caused by a 1 bp deletion at codon 517, as prepared in Example 13). In addition, the sequence from amino acids 301 to 599 of the full-length human Regnase-1 sequence was designated as C-terminal Regnase-1, and a construct having a FLAG tag on the N-terminal side and a recognition sequence for biotin ligase BirA on the C-terminal side was prepared (Reg1_301-599). The above-mentioned Regnase-1 was expressed in mammalian Expi293 cells, purified with FLAG M2 agarose, and isolated by gel filtration chromatography. When biotinylation was required, methods of nonpatent documents (BMC biotechnology, 2008,8,41; and Protein Science, 1999,8,921-929) were used.
as §1, §2, §3

[3] = Table 13, phosphorylation by TBK1, read-out: Phosphorylation inhibition FL_Reg1, 50% inhibition concentration (TBK1)
[4] = Table 14, phosphorylation by IKKβ, read-out: Phosphorylation inhibition ΔCTD_Reg1, 50% inhibition concentration (IKKβ)
[5] = Table 11, 2 nM Regnase-1, AlphaScreen, read-out: 50% inhibition concentration, Regnase-1 phosphorylation, FL_Reg1, TBK1
[6] = Table 11, 2 nM Regnase-1, AlphaScreen, read-out: 50% inhibition concentration, Regnase-1 phosphorylation, ΔCTD_Reg1, IKKβ

Row | Compound | IC50 [1, 3] [µM] | IC50 [2, 4] [µM] | IC50 [1, 5] [µM] | IC50 [2, 6] [µM]
1 | CC[C@H](C)[C@@H]1NC(=O)[C@H](CC(=O)O)NC(=O)[C@H](C)N(C)C(=O)C[C@@H](C(=O)N2CCCC2)NC(=O)[C@H](Cc2c[nH]c3ccccc23)NC(=O)[C@H](CC(=O)O)NC(=O)[C@H](Cc2c[nH]c3ccccc23)NC(=O)[C@H](Cc2ccc(O)cc2)NC(=O)[C@H](CC(=O)O)NC(=O)[C@H](Cc2ccccc2)NC(=O)[C@H](Cc2c[nH]c3ccccc23)NC1=O [PP17] (HELM PEPTIDE1{[meA].D.I.W.F.D.Y.W.D.W.D.[C1CCN([*:1])C1]}$PEPTIDE1,PEPTIDE1,1:R1-11:R3$$$V2.0) | < 0.06 | 0.3 | – | –
2 | CC(C)[C@@H]1NC(=O)[C@H](CCCCN)NC(=O)[C@H](Cc2ccc(O)cc2)NC(=O)[C@H](Cc2c[nH]c3ccccc23)NC(=O)[C@H](CO)NC(=O)[C@H]([C@@H](C)O)NC(=O)[C@H](C)N(C)C(=O)C[C@@H](C(=O)N2CCCC2)NC(=O)[C@H](CCC(N)=O)NC(=O)CNC(=O)[C@H](Cc2c[nH]c3ccccc23)NC(=O)[C@H](CC(N)=O)NC1=O [PP1] (HELM PEPTIDE1{[meA].T.S.W.Y.K.V.N.W.G.Q.D.[C1CCN([*:1])C1]}$PEPTIDE1,PEPTIDE1,1:R1-12:R3$$$V2.0) | – | > 62.1 | 54.5 | > 62.1
3 | CC[C@H](C)[C@@H]1NC(=O)[C@H](CC(N)=O)NC(=O)[C@H](Cc2ccc(O)cc2)NC(=O)[C@H](Cc2c[nH]c3ccccc23)NC(=O)[C@H](CO)NC(=O)[C@H](CC(N)=O)NC(=O)[C@H](CO)NC(=O)[C@H](Cc2ccccc2)NC(=O)[C@H](CC(N)=O)NC(=O)[C@H](C)N(C)C(=O)C[C@@H](C(=O)N2CCCC2)NC(=O)[C@H](Cc2c[nH]c3ccccc23)NC1=O [PP16] (HELM PEPTIDE1{[meA].N.F.S.N.S.W.Y.N.I.W.D.[C1CCN([*:1])C1]}$PEPTIDE1,PEPTIDE1,1:R1-12:R3$$$V2.0) | 52.4 | – | – | –
4 | CC[C@H](C)[C@@H]1NC(=O)[C@H](CCCNC(=N)N)NC(=O)[C@H](Cc2ccc(O)cc2)NC(=O)[C@H](Cc2c[nH]c3ccccc23)NC(=O)[C@H](CO)NC(=O)[C@H](CC(N)=O)NC(=O)[C@H](C)N(C)C(=O)C[C@@H](C(=O)N2CCCC2)NC(=O)[C@H](CC(C)C)NC(=O)CNC(=O)[C@H](Cc2c[nH]c3ccccc23)NC1=O [PP22] (HELM PEPTIDE1{[meA].N.S.W.Y.R.I.W.G.L.D.[C1CCN([*:1])C1]}$PEPTIDE1,PEPTIDE1,1:R1-11:R3$$$V2.0) | 24.3 | – | – | –
5 | CC[C@H](C)[C@@H]1NC(=O)[C@H](Cc2c[nH]c3ccccc23)NC(=O)[C@H](CCCNC(=N)N)NC(=O)[C@H](Cc2ccccc2)NC(=O)[C@H](CCC(N)=O)NC(=O)[C@H](C)NC(=O)[C@H](Cc2ccccc2)NC(=O)[C@H](CCCCN)NC(=O)[C@H](C)N(C)C(=O)C[C@@H](C(=O)N2CCCC2)NC(=O)[C@@H]2CCCN2C(=O)[C@H](Cc2ccc(O)cc2)NC1=O [PP11] (HELM PEPTIDE1{[meA].K.F.A.Q.F.R.W.I.Y.P.D.[C1CCN([*:1])C1]}$PEPTIDE1,PEPTIDE1,1:R1-12:R3$$$V2.0) | 29.1 | > 62.1 | – | –
6 | CC[C@H](C)[C@@H]1NC(=O)[C@H](CC(N)=O)NC(=O)[C@H]([C@@H](C)CC)NC(=O)[C@H](Cc2ccc(O)cc2)NC(=O)[C@H](Cc2c[nH]c3ccccc23)NC(=O)[C@H](CO)NC(=O)[C@H](CC(N)=O)NC(=O)[C@H](C)N(C)C(=O)C[C@@H](C(=O)N2CCCC2)NC(=O)[C@H](Cc2c[nH]cn2)NC(=O)CNC(=O)[C@H](Cc2c[nH]c3ccccc23)NC1=O [PP15] (HELM PEPTIDE1{[meA].N.S.W.Y.I.N.I.W.G.H.D.[C1CCN([*:1])C1]}$PEPTIDE1,PEPTIDE1,1:R1-12:R3$$$V2.0) | 8.5 | 31 | – | –
7 | CC[C@H](C)[C@@H]1NC(=O)[C@H](CC(N)=O)NC(=O)[C@H](Cc2ccc(O)cc2)NC(=O)[C@H](Cc2c[nH]c3ccccc23)NC(=O)[C@H](CO)NC(=O)[C@H](CC(N)=O)NC(=O)[C@H](C)NC(=O)[C@H](Cc2ccc(O)cc2)NC(=O)CNC(=O)[C@H](C)N(C)C(=O)C[C@@H](C(=O)N2CCCC2)NC(=O)[C@H](Cc2c[nH]c3ccccc23)NC1=O [PP2] (HELM PEPTIDE1{[meA].G.Y.A.N.S.W.Y.N.I.W.D.[C1CCN([*:1])C1]}$PEPTIDE1,PEPTIDE1,1:R1-12:R3$$$V2.0) | – | – | 21.7 | 14
8 | CC[C@H](C)[C@@H]1NC(=O)[C@H](CCCCN)NC(=O)[C@H](Cc2ccc(O)cc2)NC(=O)[C@H](Cc2c[nH]c3ccccc23)NC(=O)[C@H](CO)NC(=O)[C@H](CC(N)=O)NC(=O)[C@H](C)N(C)C(=O)C[C@@H](C(=O)N2CCCC2)NC(=O)[C@H](CC(C)C)NC(=O)CNC(=O)[C@H](Cc2c[nH]c3ccccc23)NC1=O [PP21] (HELM PEPTIDE1{[meA].N.S.W.Y.K.I.W.G.L.D.[C1CCN([*:1])C1]}$PEPTIDE1,PEPTIDE1,1:R1-11:R3$$$V2.0) | 13.5 | – | – | –
9 | CC[C@H](C)[C@@H]1NC(=O)[C@H](CCCCN)NC(=O)[C@H](Cc2ccc(O)cc2)NC(=O)[C@H](Cc2ccccc2)NC(=O)[C@H](C(C)C)NC(=O)[C@H](C)N(C)C(=O)C[C@@H](C(=O)N2CCCC2)NC(=O)[C@H](Cc2c[nH]c3ccccc23)NC(=O)[C@H](CC(N)=O)NC(=O)[C@H](Cc2ccc(O)cc2)NC(=O)[C@H](Cc2c[nH]c3ccccc23)NC1=O [PP19] (HELM PEPTIDE1{[meA].V.F.Y.K.I.W.Y.N.W.D.[C1CCN([*:1])C1]}$PEPTIDE1,PEPTIDE1,1:R1-11:R3$$$V2.0) | 3.7 | – | – | –
10 | CC[C@H](C)[C@@H]1NC(=O)[C@H](CO)NC(=O)[C@H](CCCNC(=N)N)NC(=O)[C@H](Cc2ccc(O)cc2)NC(=O)[C@H](Cc2ccc(O)cc2)NC(=O)[C@H](Cc2c[nH]c3ccccc23)NC(=O)[C@H](CO)NC(=O)[C@H](CCC(N)=O)NC(=O)[C@H](Cc2ccc(O)cc2)NC(=O)[C@H](CC(N)=O)NC(=O)[C@H](C)N(C)C(=O)C[C@@H](C(=O)N2CCCC2)NC(=O)[C@H](Cc2c[nH]c3ccccc23)NC1=O [PP10] (HELM PEPTIDE1{[meA].N.Y.Q.S.W.Y.Y.R.S.I.W.D.[C1CCN([*:1])C1]}$PEPTIDE1,PEPTIDE1,1:R1-13:R3$$$V2.0) | 0.2 | – | – | –
